From patent publication US12643887B2, “Heterocyclic derivatives with cardiomyocyte proliferation activity for treatment of heart diseases” (Tongji University, priority 2019, dated 2026)
pIC50: −log10 of the molar value.

Tests used:
human DYRK1A = biological target: T1, human DYRK1A (Homo sapiens, UniProt Q13627); experiment: DYRK1A enzyme assay (ADP-Glo); type: biochemical; details: ADP-Glo, ATP 60 μM; read-out: DYRK1A IC50
T1 construct: Recombinant full-length DYRK1A (expressed in E. Coli cells with an N-terminal GST tag); GST (N); purchased SignalChem D09-10G; host or cells: E. coli
Summary of the method: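 ADP formed is quantified by luciferase luminescence (ADP-Glo) after a 60-minute, 25 °C reaction with 60 μM ATP and 20 μM DYRKtide peptide. Enzyme: 3 nM recombinant N-terminal GST DYRK1A, given 30 min compound preincubation in Tris pH 7.5/MgCl2/BSA/DTT buffer; % inhibition versus plate controls, four-parameter IC50.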

[1] = test system: Neonatal Rat Ventricular Myocytes (NRVMs); experiment: Myocyte proliferation assay (EdU assay) in neonatal rat ventricular myocytes; type: cell-based; details: growth relative to blank myocyte growth without compound added; for Avg 1 uM (average myocyte proliferation): compound 1 uM; for Avg 3 uM (average myocyte proliferation): compound 3 uM; for Avg 10 uM (average myocyte proliferation): compound 10 uM
Summary of the method: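 After 36 h compound exposure (1, 3 or 10 uM in 6% FBS/ITS DMEM, following 24 h low-serum culture), NRVMs were pulsed with EdU for 12 h. Proliferation scored by automated confocal imaging of EdU click chemistry, ab8295 immunostaining and DAPI nuclei in fixed cultures.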

SMILES | pIC50 (human DYRK1A) | Avg 1 uM (average myocyte proliferation) [1] | Avg 3 uM (average myocyte proliferation) [1] | Avg 10 uM (average myocyte proliferation) [1]
NC(=O)CCN(C1=N/C(=C\c2ccc3c(c2)OCO3)C(=O)N1)c1ccccc1 [Example 36, (Z)-3-((4-(benzo[d][1,3]dioxol-5-ylmethylene)-5-oxo-4,5-dihydro-1H-imidazol-2-yl)(phenyl)amino)propanamide] | 6.00 to 7.00 | * (<10% growth relative to blank myocyte growth without compound added.) | ** (10%-50%) | –
CN(C1=N/C(=C\c2ccc3c(c2)OCO3)C(=O)N1)c1ccc(N)cc1 [Example 37, (Z)-2-((4-aminophenyl)(methyl)amino)-5-(benzo[d][1,3]dioxol-5-ylmethylene)-3,5-dihydro-4H-imidazol-4-one] | 5.00 to 6.00 | *** (>50%) | ** (10%-50%) | ** (10%-50%)
COc1ccc(N(C)C2=N/C(=C\c3ccc4ncsc4c3)C(=O)N2)cc1 [Example 38, (Z)-5-(benzo[d]thiazol-6-ylmethylene)-2-((4-methoxyphenyl)(methyl)amino)-3,5-dihydro-4H-imidazol-4-one] | 6.00 to 7.00 | *** (>50%) | ** (10%-50%) | *** (>50%)
O=C1NC(N(CC2CC2)c2ccccc2)=N/C1=C\c1ccc2c(c1)OCCO2 [Example 39, (Z)-2-((cyclopropylmethyl)(phenyl)amino)-5-((2,3-dihydrobenzo[b][1,4]dioxin-6-yl)methylene)-3,5-dihydro-4H-imidazol-4-one] | 5.00 to 6.00 | *** (>50%) | ** (10%-50%) | * (<10% growth relative to blank myocyte growth without compound added.)
O=C1NC(N(Cc2ccccc2)c2ccccc2)=N/C1=C\c1ccc2ncsc2c1 [Example 41, (Z)-5-(benzo[d]thiazol-6-ylmethylene)-2-(benzyl(phenyl)amino)-3,5-dihydro-4H-imidazol-4-one] | 6.00 to 7.00 | * (<10% growth relative to blank myocyte growth without compound added.) | * (<10% growth relative to blank myocyte growth without compound added.) | ** (10%-50%)
O=C1/C(=C/c2ccc3ncsc3c2)N=C(N(Cc2ccccc2)c2ccccc2)N1Cc1ccccc1 [Example 42, (Z)-5-(benzo[d]thiazol-6-ylmethylene)-3-benzyl-2-(benzyl(phenyl)amino)-3,5-dihydro-4H-imidazol-4-one] | < 5.00 | ** (10%-50%) | ** (10%-50%) | *** (>50%)
CN(C1=N/C(=C\c2ccc3ncsc3c2)C(=O)N1)c1ccc([N+](=O)[O-])cc1 [Example 43, (Z)-5-(benzo[d]thiazol-6-ylmethylene)-2-(methyl(4-nitrophenyl)amino)-3,5-dihydro-4H-imidazol-4-one] | 5.00 to 6.00 | ** (10%-50%) | ** (10%-50%) | ** (10%-50%)
CN(C1=N/C(=C\c2ccc3ncsc3c2)C(=O)N1)c1ccc(N)cc1 [Example 44, (Z)-2-((4-aminophenyl)(methyl)amino)-5-(benzo[d]thiazol-6-ylmethylene)-3,5-dihydro-4H-imidazol-4-one] | 6.00 to 7.00 | *** (>50%) | ** (10%-50%) | ** (10%-50%)
CC(C)NC1=N/C(=C\c2ccc3ncsc3c2)C(=O)N1C [Example 45, (Z)-5-(benzo[d]thiazol-6-ylmethylene)-2-(isopropylamino)-3-methyl-3,5-dihydro-4H-imidazol-4-one] | 6.00 to 7.00 | ** (10%-50%) | ** (10%-50%) | ** (10%-50%)
Cn1cnc2ccc(/C=C3\N=C(Nc4ccccc4)NC3=O)cc21 [Example 46, (Z)-5-((1-methyl-1H-benzo[d]imidazol-6-yl)methylene)-2-(phenylamino)-3,5-dihydro-4H-imidazol-4-one] | > 7.00 | *** (>50%) | ** (10%-50%) | *** (>50%)
O=C1NC(Nc2ccc3ncsc3c2)=N/C1=C\c1ccc2c(c1)OCO2 [Example 47, (Z)-5-(benzo[d][1,3]dioxol-5-ylmethylene)-2-(benzo[d]thiazol-6-ylamino)-3,5-dihydro-4H-imidazol-4-one] | < 5.00 | *** (>50%) | *** (>50%) | *** (>50%)
CC(C)NC1=N/C(=C\c2ccc3scnc3c2)C(=O)N1 [Example 49, (Z)-5-(benzo[d]thiazol-5-ylmethylene)-2-(isopropylamino)-3,5-dihydro-4H-imidazol-4-one] | < 5.00 | * (<10% growth relative to blank myocyte growth without compound added.) | ** (10%-50%) | *** (>50%)
O=C1NC(NC23CC4CC(CC(C4)C2)C3)=N/C1=C\c1ccc2scnc2c1 [Example 50, (Z)-2-(adamantan-1-ylamino)-5-(benzo[d]thiazol-5-ylmethylene)-3,5-dihydro-4H-imidazol-4-one] | 5.00 to 6.00 | * (<10% growth relative to blank myocyte growth without compound added.) | * (<10% growth relative to blank myocyte growth without compound added.) | –
O=C1NC(Nc2ccccc2)=N/C1=C\c1ccc2[nH]ccc2c1 [Example 51, (Z)-5-((1H-indol-5-yl)methylene)-2-(phenylamino)-3,5-dihydro-4H-imidazol-4-one] | < 5.00 | ** (10%-50%) | ** (10%-50%) | ** (10%-50%)
O=C1NC(Nc2ccccc2)=N/C1=C\c1ccc2occc2c1 [Example 52, (Z)-5-(benzofuran-5-ylmethylene)-2-(phenylamino)-3,5-dihydro-4H-imidazol-4-one] | < 5.00 | ** (10%-50%) | ** (10%-50%) | ** (10%-50%)
O=C1NC(Nc2ccccc2)=N/C1=C\c1ccc2ncccc2c1 [Example 53, (Z)-2-(phenylamino)-5-(quinolin-6-ylmethylene)-3,5-dihydro-4H-imidazol-4-one] | > 7.00 | ** (10%-50%) | *** (>50%) | ** (10%-50%)
O=C1NC(Nc2ccccc2)=N/C1=C\c1ccc2cn[nH]c2c1 [Example 54, (Z)-5-((1H-indazol-6-yl)methylene)-2-(phenylamino)-3,5-dihydro-4H-imidazol-4-one] | < 5.00 | * (<10% growth relative to blank myocyte growth without compound added.) | * (<10% growth relative to blank myocyte growth without compound added.) | –
O=C1NC(Nc2ccccc2)=N/C1=C\c1ccc2[nH]ncc2c1 [Example 55, (Z)-5-((1H-indazol-5-yl)methylene)-2-(phenylamino)-3,5-dihydro-4H-imidazol-4-one] | > 7.00 | * (<10% growth relative to blank myocyte growth without compound added.) | * (<10% growth relative to blank myocyte growth without compound added.) | –
O=C1NC(Nc2ccccc2)=N/C1=C\c1ccc2nn[nH]c2c1 [Example 56, (Z)-5-((1H-benzo[d][1,2,3]triazol-6-yl)methylene)-2-(phenylamino)-3,5-dihydro-4H-imidazol-4-one] | > 7.00 | * (<10% growth relative to blank myocyte growth without compound added.) | * (<10% growth relative to blank myocyte growth without compound added.) | –
O=C1NC(Nc2ccc3ncsc3c2)=N/C1=C\c1ccc2[nH]ccc2c1 [Example 58, (Z)-5-((1H-indol-5-yl)methylene)-2-(benzo[d]thiazol-6-ylamino)-3,5-dihydro-4H-imidazol-4-one] | < 5.00 | * (<10% growth relative to blank myocyte growth without compound added.) | * (<10% growth relative to blank myocyte growth without compound added.) | –
O=C1NC(Nc2ccc3ncsc3c2)=N/C1=C\c1ccc2occc2c1 [Example 59, (Z)-2-(benzo[d]thiazol-6-ylamino)-5-(benzofuran-5-ylmethylene)-3,5-dihydro-4H-imidazol-4-one] | < 5.00 | * (<10% growth relative to blank myocyte growth without compound added.) | * (<10% growth relative to blank myocyte growth without compound added.) | –
O=C1NC(Nc2ccc3ncsc3c2)=N/C1=C\c1ccc2cccnc2c1 [Example 60, (Z)-2-(benzo[d]thiazol-6-ylamino)-5-(quinolin-7-ylmethylene)-3,5-dihydro-4H-imidazol-4-one] | < 5.00 | * (<10% growth relative to blank myocyte growth without compound added.) | * (<10% growth relative to blank myocyte growth without compound added.) | –
